Entries after “also recorded” stand apart in the source; their conditions may differ.
Tested on: patients undergoing photorefractive keratectomy (PRK) surgery
Assay: PRK study: adverse events
Assay type: in vivo, human
Procedure: The study was a proof of concept, double-masked, randomized, vehicle-controlled study of compound I administered as eye drops in addition to standard of care treatment in patients after PRK surgery. PRK surgery was performed as an outpatient procedure under topical anesthesia with removal of the corneal epithelium to expose the stroma for the laser ablation. Compound I dosing was as single eye drop of 2.5% (25 mg/ml, 0.925 mg/drop), administered four times daily (every six hours) in one eye from immediate post-op (time 0) to last dose at 72 hours.
Safety assessments consisted of collecting all AEs, SAEs, with their severity and relationship to study drug. Only signs and symptoms greater than the listed ranges of either severity or duration were reported as AEs.
Adverse events and serious adverse events included an assessment of both systemic and ocular assessments. Systemic safety assessments included regular assessments of height and weight, vital signs, reporting medication errors including misuse/abuse, pregnancy reporting and early phase safety monitoring. The misuse/abuse, pregnancy reporting and early phase safety monitoring were not assessed for the study. Ocular safety assessments included the following: • Best-corrected visual acuity (BCVA) and uncorrected visual acuity (UCVA): Was measured at each visit using an ETDRS visual acuity chart at 4 meters (13 feet) or 1 meter (for patients that cannot read the 4 meter chart). The BCVA scoring was done based on the number of correctly read letters plus 30. If visual acuity was so poor that the patient could not read any of the largest letters at 1 meter, count fingers and hand movement vision and light perception was tested. • Intraocular Pressure (TOP): IOP measurements were conducted with applanation tonometry or Tonopen. • Dilated fundus exam: The dilated fundus examination included ophthalmoscopic assessments of the vitreous, retina/macula/choroid, and optic nerve. Evaluations for retinal tear/detachment, retinal hemorrhage, vitreous hemorrhage density, vitreous haze grading and abnormal findings were done and scored according to grading criteria. • Ocular hyperemia: Conjunctival redness of the bulbar conjunctiva in each eye at the slit lamp according to the McMonnies redness scale was graded. […] By adjusting the calibrated slit beam width and height, the maximum horizontal (wound width) and vertical dimensions (wound height) of the surgical epithelial wound was estimated. The evaluation was performed until wound closure and report of wound size as 0 horizontal and 0 vertical dimensions. • Slit-lamp biomicroscopy: Ocular signs (eyelids/conjunctiva, cornea, lens, and iris/anterior chamber) was assessed in both eyes by slit lamp biomicroscopy according to the grading criteria. • Blink rate: A blink was defined as a bilateral paroxysmal closure of the eyelids (duration<1 second) in the absence of a provoking external stimulus. Each blink assessment lasted for 2 min (or as close to 2 minutes as possible with minimum time 1 minute) and the obtained blink rate was averaged to calculate blink rate in blinks/min. • Tear production (Schirmer's test without anesthesia): The test was performed without anesthetic in both eyes simultaneously. Tear secretion was measured in millimeters of the length of strip wetted by tears. […] The strip was wetted with 1 drop of sterile saline and flicked to remove excess saline. The patient blinked several times to ensure dispersion of the dye throughout the tear film prior to grading on a scale of 0-3 (0=Normal, No staining; 1=Mild, Superficial stippling micropunctate staining; 2=Moderate, Macropunctate staining with some coalescent areas and 3=Severe, Numerous coalescent macropunctate areas and/or patches) for each of 5 zones (central plus 4 quadrants).

CC(C)c1nc2cc(O)ccc2c(=O)n1-c1ccc(C#N)cc1 [Compound I, 4-(7-hydroxy-2-isopropyl-4-oxo-4H-quinazolin-3-yl)-benzonitrile]
Non-ocular AE Arthralgia: Procedure related (Compound I 2.5%): no | Non-ocular AE Arthralgia: Severity (Compound I 2.5%): mild | Non-ocular AE Headache: Procedure related (Compound I 2.5%): no | Non-ocular AE Headache: Severity (Compound I 2.5%): mild | Non-ocular AE Nasopharyngitis: Procedure related (Compound I 2.5%): no | Non-ocular AE Nasopharyngitis: Severity (Compound I 2.5%): mild, mild | Non-ocular AE Oropharyngeal Pain: Procedure related (Compound I 2.5%): no | Non-ocular AE Oropharyngeal Pain: Severity (Compound I 2.5%): mild | Non-ocular AE Pyrexia: Procedure related (Compound I 2.5%): no | Non-ocular AE Pyrexia: Severity (Compound I 2.5%): moderate | Non-ocular AE Sinus Congestion: Procedure related (Compound I 2.5%): no | Non-ocular AE Sinus Congestion: Severity (Compound I 2.5%): moderate | Non-ocular AE Sinusitis: Procedure related (Compound I 2.5%): no | Non-ocular AE Sinusitis: Severity (Compound I 2.5%): moderate | Non-ocular AE Vomiting: Procedure related (Compound I 2.5%): no | Non-ocular AE Vomiting: Severity (Compound I 2.5%): moderate | Ocular AE Corneal Opacity: Procedure related (Compound I 2.5%): yes | Ocular AE Corneal Opacity: Severity (Compound I 2.5%): mild | Ocular AE Posterior Vitreous Detachment: Procedure related (Compound I 2.5%): no | Ocular AE Posterior Vitreous Detachment: Severity (Compound I 2.5%): mild | Ocular AE Punctate Keratitis: Procedure related (Compound I 2.5%): yes | Ocular AE Punctate Keratitis: Severity (Compound I 2.5%): mild | Non-ocular AE Arthralgia: patients (Compound I 2.5%, N = 40): 1 (2.5) n (%) | Non-ocular AE Headache: patients (Compound I 2.5%, N = 40): 1 (2.5) n (%) | Non-ocular AE Nasopharyngitis: patients (Compound I 2.5%, N = 40): 2 (5.0) n (%) | Non-ocular AE Oropharyngeal Pain: patients (Compound I 2.5%, N = 40): 1 (2.5) n (%) | Non-ocular AE Pyrexia: patients (Compound I 2.5%, N = 40): 1 (2.5) n (%) | Non-ocular AE Sinus Congestion: patients (Compound I 2.5%, N = 40): 1 (2.5) n (%) | Non-ocular AE Sinusitis: patients (Compound I 2.5%, N = 40): 1 (2.5) n (%) | Non-ocular AE Tinnitus: patients (Compound I 2.5%, N = 40): 0 n (%) | Non-ocular AE Vomiting: patients (Compound I 2.5%, N = 40): 1 (2.5) n (%) | Number of AEs (Compound I 2.5%, N = 40): 12 | Number of drug-related AEs (Compound I 2.5%, N = 40): 0 | Number of mild severity AEs (Compound I 2.5%, N = 40): 8 | Number of moderate severity AEs (Compound I 2.5%, N = 40): 4 | Number of non-ocular AEs (Compound I 2.5%, N = 40): 9 | Number of ocular AEs (Compound I 2.5%, N = 40): 3 | Number of procedure-related AEs (Compound I 2.5%, N = 40): 2 | Number of severe AEs (Compound I 2.5%, N = 40): 0 | Ocular AE Corneal Infiltrate: patients (Compound I 2.5%, N = 40): 0 n (%) | Ocular AE Corneal Opacity: patients (Compound I 2.5%, N = 40): 1 (2.5) n (%) | Ocular AE Posterior Vitreous Detachment: patients (Compound I 2.5%, N = 40): 1 (2.5) n (%) | Ocular AE Punctate Keratitis: patients (Compound I 2.5%, N = 40): 1 (2.5) n (%) | Patients with at least one AE (Compound I 2.5%, N = 40): 8 (20) n (%) | Patients with at least one non-ocular AE (Compound I 2.5%, N = 40): 6 (15) n (%) | Patients with at least one ocular AE (Compound I 2.5%, N = 40): 3 (7.5) n (%) | Differences in safety between compound I and Vehicle (PRK study): no observed clinically meaningful differences in safety | Deaths, SAEs, discontinuations due to AEs (PRK study, 2.5% four times daily for 72 hours): no deaths or SAEs or discontinuation of the drug or discontinuation from the study due to AEs; also recorded: no deaths, or serious or severe AEs, treatment discontinuations or study discontinuations

Source: patent publication US11234982B2, “Methods for treating ocular surface pain” (NOVARTIS AG, priority 2019, dated 2022)
